The values that follow come from US20070099877A1, “N-aryl-thienopyrimidin-4-amines and analogs as activators of caspases and inducers of apoptosis and the use thereof” (Cytovia, Inc., priority 2005, published 2007).

Type in all cases: cell-based
The subject of experiment [1] is human breast cancer cell line T-47D. The experiment is described as follows: Caspase cascade activation (DEVD-R110 fluorogenic substrate) in T-47D cells. The following applies: Homo sapiens, T47D. As to the method: (§1) Human breast cancer cell line T-47D, human lung cancer cell line H1299, human hepatocellular carcinoma cell line SNU398, human colon carcinoma cell line HCT116 were grown according to media component mixtures designated by American Type Culture Collection+10% FCS (Invitrogen Corporation), in a 5% CO2-95% humidity incubator at 37° C. T-47D and H1299 cells were maintained at a cell density between 50 and 80% confluency at a cell density of 0.1 to 0.6×10^6 cells/mL. Cells were harvested at 600×g and resuspended at 0.65×10^6 cells/mL into appropriate media+10% FCS. An aliquot of 22.5 μL of cells was added to a well of a 384-well microtiter plate containing 2.5 μL of a 10% DMSO in RPMI-1640 media solution containing 0.16 to 100 μM of N-(2,5-dimethoxyphenyl)-2-methylthieno[3,2-d]pyrimidin-4-amine or other test compound (0.016 to 10 μM final). An aliquot of 22.5 μL of cells was added to a well of a 384-well microtiter plate containing 2.5 μL of a 10% DMSO in RPMI-1640 media solution without test compound as the control sample. The samples were mixed by agitation and then incubated at 37° C. for 24 h or 48 h in a 5% CO2-95% humidity incubator. After incubation, the samples were removed from the incubator and 25 μL of a solution containing 14 μM of N-(Ac-DEVD)-N′-ethoxycarbonyl-R110 (SEQ ID NO.:1) fluorogenic substrate (Cytovia, Inc.; WO99/18856), 20% sucrose (Sigma), 20 mM DTT (Sigma), 200 mM NaCl (Sigma), 40 mM Na PIPES buffer pH 7.2 (Sigma), and 500 μg/mL lysolecithin (Calbiochem) was added. The samples were mixed by agitation and incubated at room temperature. Using a fluorescent plate reader (Model SPECTRAfluor Plus, Tecan), an initial reading (T=0) was made approximately 1-2 min after addition of the substrate solution, employing excitation at 485 nm and emission at 530 nm, to determine the background fluorescence of the control sample. After the 3 h incubation, the samples were read for fluorescence as above (T=3 h).
(§2) The Relative Fluorescence Unit values (RFU) were used to calculate the sample readings as follows: RFU(T=3h)−Control RFU(T=O)=Net RFU(T=3h)
(§3) The activity of caspase cascade activation was determined by the ratio of the net RFU value for N-(2,5-dimethoxyphenyl)-2-methylthieno[3,2-d]pyrimidin-4-amine or other test compound to that of control samples. The EC50 (nM) was determined by a sigmoidal dose-response calculation (Prism 3.0, GraphPad Software Inc.).

Experiment [2] has as its system human lung cancer cell line H1299. The experiment can be described thus: Caspase cascade activation in H1299 cells. As to conditions: NCI-H1299, 24 h, read-out: Caspase activation Potency EC50 H1299 (24 h). As to the method: as §1, §2, §3
Experiment [3] deals with human hepatocellular carcinoma cell line SNU398. The experiment can be described thus: Caspase cascade activation in SNU398 cells. As to conditions: Homo sapiens, SNU-398, 48 h, read-out: Caspase activation Potency EC50 SNU398 (48 h). As to the method:
as §1, §2, §3

Experiment [4] concerns human colon carcinoma cell line HCT116. The experiment can be described thus: Caspase cascade activation in HCT116 cells. As to conditions: Homo sapiens, HCT-116, 48 h, read-out: Caspase activation Potency EC50 HCT116 (48 h). As to the method:
as §1, §2, §3

Where [5] appears, read: 24 h, T47D cells, 24 h, read-out: Caspase activation Potency EC50 T47D (24 h).
Setting [6] is: 48 h, T-47D cells, 48 h, read-out: Caspase activation Potency EC50 T-47D (48 h).

Counter-ions that a name gives are not always drawn. Like-named read-outs stand apart in the source and are kept apart here. A value given as a limit tells only on which side of the number the result lay.

One may read the EC50 as the midpoint of the concentration-response curve. With `COc1cccc(OC)c1Nc1ncnc2ccsc12` [Example 62, N-(2,6-Dimethoxyphenyl)thieno[3,2-d]pyrimidin-4-amine], the EC50 in experiment [1] (setting [5]), in experiment [1] (setting [6]), in experiment [2], in experiment [3] and in experiment [4] was above 10 µM in each case.

Take `COc1ccc(OC)c(Nc2ncnc3cc(Br)sc23)c1` [Example 20, 6-Bromo-N-(2,5-dimethoxyphenyl)thieno[3,2-d]pyrimidin-4-amine]: the EC50 in experiment [1] (setting [5]) was 0.016 µM; in experiment [1] (setting [6]) it was 0.037 µM; in experiment [2] it was 0.114 µM; in experiment [3] it was 0.431 µM; in experiment [4] it was 0.341 µM.

Turning to `COc1ccc(O)c(Nc2ncnc3ccsc23)c1` [Example 42, N-(2-Hydroxy-5-methoxyphenyl)thieno[3,2-d]pyrimidin-4-amine], the EC50 in experiment [1] (setting [5]), in experiment [1] (setting [6]), in experiment [2], in experiment [3] and in experiment [4] was above 10 µM each time.

Consider `COc1ccc(OC)c(Nc2nc(C)nc3scc(C)c23)c1` [Example 7, N-(2,5-Dimethoxyphenyl)-2,5-dimethylthieno[2,3-d]pyrimidin-4-amine hydrochloride], for which the EC50 in experiment [1] (setting [5]), in experiment [1] (setting [6]), in experiment [2], in experiment [3] and in experiment [4] was above 10 µM throughout.

With `COc1ccc([N+](=O)[O-])c(Nc2ncnc3ccsc23)c1` [Example 35, N-(5-Methoxy-2-nitrophenyl)thieno[3,2-d]pyrimidin-4-amine], the concentration giving a half-maximal response (EC50) in experiment [1] (setting [5]), in experiment [1] (setting [6]), in experiment [2], in experiment [3] and in experiment [4] was above 10 µM throughout.

Take `COc1ccc(C)cc1Nc1ncnc2ccsc12` [Example 31, N-(2-Methoxy-5-methylphenyl)thieno[3,2-d]pyrimidin-4-amine]: the EC50 is 0.417 µM in experiment [1] (setting [5]); 0.519 µM in experiment [1] (setting [6]); above 10 µM in experiment [2]; above 10 µM in experiment [3]; above 10 µM in experiment [4].

As to `COc1ccc(Nc2nc(C)nc3sccc23)cc1` [Example 15, N-(4-Methoxyphenyl)-2-methylthieno[2,3-d]pyrimidin-4-amine], the EC50 was 5.74 µM in experiment [1] (setting [5]); 5.46 µM in experiment [1] (setting [6]); 5.08 µM in experiment [2]; 5.28 µM in experiment [3]; above 10 µM in experiment [4].

As to `COc1ccccc1Nc1ncnc2ccsc12` [Example 4, N-(2-Methoxyphenyl)thieno[3,2-d]pyrimidin-4-amine], the EC50 in experiment [1] (setting [5]), in experiment [1] (setting [6]), in experiment [2], in experiment [3] and in experiment [4] was above 10 µM throughout.

As for `COc1ccc(OC)c(Nc2nc(C)nc3sccc23)c1` [Example 3, N-(2,5-Dimethoxyphenyl)-2-methylthieno[2,3-d]pyrimidin-4-amine], the EC50 was determined as 0.121 µM in experiment [1] (setting [5]); 0.311 µM in experiment [1] (setting [6]); 5 µM in experiment [2]; 4.66 µM in experiment [3]; 5.55 µM in experiment [4].

As for `COc1ccc(OC)c(Nc2ncnc3sc(-c4ccccc4)c(C)c23)c1` [Example 16, N-(2,5-Dimethoxyphenyl)-5-methyl-6-phenylthieno[2,3-d]pyrimidin-4-amine hydrochloride], the EC50 in experiment [1] (setting [5]), in experiment [1] (setting [6]), in experiment [2], in experiment [3] and in experiment [4] was above 10 µM in each case.

Take `COc1ccc(Nc2ncnc3ccsc23)c(OC)c1` [Example 8, N-(2,4-Dimethoxyphenyl)thieno[3,2-d]pyrimidin-4-amine hydrochloride]: the EC50 in experiment [1] (setting [5]), in experiment [1] (setting [6]), in experiment [2], in experiment [3] and in experiment [4] was above 10 µM in each case.

For the compound `COc1ccc(Nc2ncnc3scc(C)c23)cc1` [Example 23, N-(4-Methoxyphenyl)-5-methylthieno[2,3-d]pyrimidin-4-amine], the EC50 in experiment [1] (setting [5]), in experiment [1] (setting [6]), in experiment [2], in experiment [3] and in experiment [4] was above 10 µM throughout.

With `Oc1cc(O)cc(Nc2ncnc3ccsc23)c1` [Example 43, N-(3,5-Dihydroxyphenyl)thieno[3,2-d]pyrimidin-4-amine], the EC50 in experiment [1] (setting [5]), in experiment [1] (setting [6]), in experiment [2], in experiment [3] and in experiment [4] was above 10 µM in each case.

Take `Brc1cccc(Nc2ncnc3ccsc23)c1` [Example 25, N-(3-Bromophenyl)thieno[3,2-d]pyrimidin-4-amine hydrochloride]: the EC50 in experiment [1] (setting [5]) was 5.57 µM; in experiment [1] (setting [6]), above 10 µM; in experiment [2], 5.44 µM; in experiment [3], above 10 µM; in experiment [4], above 10 µM.

For the compound `COc1ccc(Nc2ncnc3ccsc23)cc1` [Example 19, N-(4-Methoxyphenyl)thieno[3,2-d]pyrimidin-4-amine hydrochloride], the EC50 in experiment [1] (setting [5]), in experiment [1] (setting [6]), in experiment [2], in experiment [3] and in experiment [4] was above 10 µM in each case.

For `COc1ccc(OC)c(Nc2nc(-c3ccccc3)nc3ccsc23)c1` [Example 26, N-(2,5-Dimethoxyphenyl)-2-phenylthieno[3,2-d]pyrimidin-4-amine], the EC50 in experiment [1] (setting [5]) is 0.476 µM; in experiment [1] (setting [6]), 0.496 µM; in experiment [2], 5.04 µM; in experiment [3] it was above 10 µM; in experiment [4], above 10 µM.

As to `COc1ccc(OC)c(Nc2ncnc3sc(C)cc23)c1` [Example 28, N-(2,5-Dimethoxyphenyl)-6-methylthieno[2,3-d]pyrimidin-4-amine hydrochloride], the EC50 is 0.422 µM in experiment [1] (setting [5]); 0.542 µM in experiment [1] (setting [6]); above 10 µM in experiment [2]; above 10 µM in experiment [3]; above 10 µM in experiment [4].

With `COc1ccc(C(C)(C)C)cc1Nc1ncnc2ccsc12` [Example 40, N-(5-tert-Butyl-2-methoxyphenyl)thieno[3,2-d]pyrimidin-4-amine], the EC50 in experiment [1] (setting [5]) is 5.24 µM; in experiment [1] (setting [6]), 2.14 µM; in experiment [2], 5.49 µM; in experiment [3] it was 4.85 µM; in experiment [4], above 10 µM.

For the compound `COc1ccc(Nc2ncnc3ccsc23)cc1OC` [Example 14, N-(3,4-Dimethoxyphenyl)thieno[3,2-d]pyrimidin-4-amine hydrochloride], the EC50 in experiment [1] (setting [5]) is 1.81 µM; in experiment [1] (setting [6]), 2.02 µM; in experiment [2] it was above 10 µM; in experiment [3] it was above 10 µM; in experiment [4], above 10 µM.

In the case of `COc1ccc([N+](=O)[O-])cc1Nc1ncnc2ccsc12` [Example 37, N-(2-Methoxy-5-nitrophenyl)thieno[3,2-d]pyrimidin-4-amine], the EC50 in experiment [1] (setting [5]) is 5.07 µM; in experiment [1] (setting [6]) it was 5.33 µM; in experiment [2] it was 5.06 µM; in experiment [3], 3.57 µM; in experiment [4], above 10 µM.
